31 compounds from US20110105509A1 (Wyeth, LLC, priority 2009, published 2011) can be followed below.

The assay has as its target T1, CRTH2 (Homo sapiens, UniProt Q9Y5Y4).
T1 construct: expressed in transfected cells; host or cells: CHO cells
T1 sequence (Q9Y5Y4 1-395): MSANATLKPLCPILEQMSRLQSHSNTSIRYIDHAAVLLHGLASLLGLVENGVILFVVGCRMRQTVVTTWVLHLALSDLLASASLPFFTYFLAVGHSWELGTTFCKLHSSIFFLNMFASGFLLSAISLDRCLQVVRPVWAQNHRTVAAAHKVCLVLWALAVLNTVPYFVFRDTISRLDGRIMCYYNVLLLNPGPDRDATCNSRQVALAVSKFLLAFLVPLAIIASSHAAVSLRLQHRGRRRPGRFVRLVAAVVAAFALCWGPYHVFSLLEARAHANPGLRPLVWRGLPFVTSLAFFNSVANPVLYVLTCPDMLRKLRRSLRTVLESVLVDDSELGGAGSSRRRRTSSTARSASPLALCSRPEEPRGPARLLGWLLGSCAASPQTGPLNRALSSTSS
The assay can be described thus: FRET based competitive immunoassay (cAMP) in CRTH2 expressing CHO cells. The conditions noted are these: CRTH2 expressing CHO cells incubated with forskolin and PGD2; Eu3+ cryptate-labeled anti-cAMP and d2-labeled cAMP. The format is cell-based. The protocol: FRET Assay: To evaluate potency compounds were tested in a FRET based competitive immunoassay in which CRTH2 expressing CHO cells were incubated in the presence of forskolin and PGD2 along with Eu3+ cryptate-labeled anti-cAMP and d2-labeled cAMP.
Usually IC50 stands for the midpoint of a concentration-inhibition curve. Low readings indicate higher potency, high ones lower potency. Compound `Cc1cc(Cn2nc(-c3c(C)n(CC(=O)O)c4ccc(Cl)cc34)ccc2=O)c2ccccc2n1` [Example 145, 2-(5-chloro-2-methyl-3-(1-((2-methylquinolin-4-yl)methyl)-6-oxo-1,6-dihydropyridazin-3-yl)-1H-indol-1-yl)acetic acid] displayed an IC50 of 0.144 µM. The result for `Cc1c(-c2ccc(=O)n(C)n2)c2ccccc2n1CC(=O)O` [Example 183, 2-(2-methyl-3-(1-methyl-6-oxo-1,6-dihydropyridazin-3-yl)-1H-indol-1-yl)-acetic acid] reads 4.99 µM; that for `Cc1c(Cc2cn(Cc3ccccc3)c(=O)c3ccccc23)c2cc(F)ccc2n1CC(=O)O` [Example 85, 2-(3-((2-benzyl-1-oxo-1,2-dihydroisoquinolin-4-yl)methyl)-5-fluoro-2-methyl-1H-indol-1-yl)acetic acid], 0.062 µM.

In the case of `Cc1c(-c2nn(CCOc3ccccc3)c(=O)c3ccccc23)c2cc(Cl)ccc2n1CC(=O)O` [Example 221, 2-(5-chloro-2-methyl-3-(4-oxo-3-(2-phenoxyethyl)-3,4-dihydrophthalazin-1-yl)-1H-indol-1-yl)acetic acid], the IC50 stood at 0.006 µM. In turn, `Cc1c(Cc2ccc(=O)n(Cc3cccc(F)c3)n2)c2cc(F)ccc2n1CC(=O)O` [Example 341, (3-{[1-(3-fluorobenzyl)-6-oxo-1,6-dihydropyridazin-3-yl]methyl}-5-fluoro-2-methyl-1H-indol-1-yl)acetic acid] returned an IC50 of 0.033 µM.

For the compound `Cc1c(-c2ccc(=O)n(Cc3ccccc3F)c2)c2ccccc2n1CC(=O)O` [Example 282, 2-(3-(1-(2-fluorobenzyl)-6-oxo-1,6-dihydropyridin-3-yl)-2-methyl-1H-indol-1-yl)acetic acid], the IC50 was 0.011 µM. In turn, `Cc1c(CC2=NN(CC(F)(F)F)C(=O)CC2)c2cc(F)ccc2n1CC(=O)O` [Example 57, 2-(5-Fluoro-2-methyl-3-((6-oxo-1-(2,2,2-trifluoroethyl)-1,4,5,6-tetrahydropyridazin-3-yl)-methyl)-1H-indol-1-yl)acetic acid] had a half-inhibitory concentration (IC50) of 0.005 µM. `Cc1c(CC2=NN(Cc3ccccc3)C(=O)CC2)c2cc(F)ccc2n1CC(=O)O` [Example 78, 2-(3-((1-Benzyl-6-oxo-1,4,5,6-tetrahydropyridazin-3-yl)methyl)-5-fluoro-2-methyl-1H-indol-1-yl)acetic acid] yielded an IC50 of 0.002 µM.

Turning to `Cc1c(-c2ccc(=O)n(CCCC(F)(F)F)c2)c2ccccc2n1CC(=O)O` [Example 296, 2-(2-methyl-3-(6-oxo-1-(4,4,4-trifluorobutyl)-1,6-dihydropyridin-3-yl)-1H-indol-1-yl)acetic acid], the IC50 is 0.397 µM. `Cc1c(Cc2ccc(=O)n(CCCC(F)(F)F)c2)c2cc(F)ccc2n1CC(=O)O` [Example 54, 2-(5-Fluoro-2-methyl-3-((6-oxo-1-(4,4,4-trifluorobutyl)-1,6-dihydropyridin-3-yl)methyl)-1H-indol-1-yl)acetic acid]: the IC50 is 0.329 µM. `Cc1c(-c2nn(Cc3nc4ccccc4s3)c(=O)c3ccccc23)c2cc(F)ccc2n1CC(=O)O` [Example 110, 2-(3-(3-(Benzo[d]thiazol-2-ylmethyl)-4-oxo-3,4-dihydrophthalazin-1-yl)-5-fluoro-2-methyl-1H-indol-1-yl)acetic acid]: the concentration for half-maximal inhibition (IC50) worked out at 0.007 µM. Compound `Cc1c(-c2cn(Cc3ccccc3)c(=O)c3ccccc23)c2ccccc2n1CC(=O)O` [Example 247, 2-(3-(2-benzyl-1-oxo-1,2-dihydroisoquinolin-4-yl)-2-methyl-1H-indol-1-yl)-acetic acid] returned an IC50 of 0.012 µM.

On to `Cc1c(-c2cn(CCCC(F)(F)F)c(=O)c3ccccc23)c2cc(F)ccc2n1CC(=O)O` [Example 256, (5-fluoro-2-methyl-3-(1-oxo-2-(4,4,4-trifluorobutyl)-1,2-dihydroisoquinolin-4-yl)-1H-indol-1-yl)acetic acid], for which the IC50 came out at 0.002 µM. Compound `Cc1c(Cc2ccc(=O)n(Cc3ccccc3F)c2)c2cc(F)ccc2n1CC(=O)O` [Example 32, 2-(5-Fluoro-3-((1-(2-fluorobenzyl)-6-oxo-1,6-dihydropyridin-3-yl)methyl)-2-methyl-1H-indol-1-yl)acetic acid] yielded an IC50 of 0.008 µM. The value for `Cc1c(Cc2ccc(=O)n(Cc3cccc(F)c3)c2)c2cc(Cl)ccc2n1CC(=O)O` [Example 45, 2-(5-Chloro-3-((1-(3-fluorobenzyl)-6-oxo-1,6-dihydropyridin-3-yl)methyl)-2-methyl-1H-indol-1-yl)acetic acid] was 0.005 µM; that for `Cc1c(-c2nn(CC(F)(F)F)c(=O)c3ccccc23)c2cc(Cl)ccc2n1CC(=O)O` [Example 109, 2-(5-chloro-2-methyl-3-(4-oxo-3-(2,2,2-trifluoroethyl)-3,4-dihydro-phthalazin-1-yl)-1H-indol-1-yl)acetic acid] was 0.042 µM; that for `Cc1c(-c2ccc(=O)n(Cc3ccc4ccccc4n3)n2)c2cc(F)ccc2n1CC(=O)O` [Example 157, 2-(5-fluoro-2-methyl-3-(6-oxo-1-(quinolin-2-ylmethyl)-1,6-dihydro-pyridazin-3-yl)-1H-indol-1-yl)acetic acid] was 0.057 µM. The value for `Cc1c(-c2ccc(=O)n(Cc3ccccc3F)c2)c2cc(F)ccc2n1CC(=O)O` [Example 266, 2-(5-fluoro-3-(1-(2-fluorobenzyl)-6-oxo-1,6-dihydropyridin-3-yl)-2-methyl-1H-indol-1-yl)acetic acid] was 0.009 µM; that for `Cc1c(-c2nn(Cc3cccc(C(F)(F)F)c3)c(=O)c3ccccc23)c2cc(F)ccc2n1CC(=O)O` [Example 203, 2-(5-fluoro-2-methyl-3-(4-oxo-3-(3-(trifluoromethyl)benzyl)-3,4-dihydro-phthalazin-1-yl)-1H-indol-1-yl)acetic acid] was 0.01 µM; that for `Cc1c(-c2nn(CCOc3ccccc3)c(=O)c3ccccc23)c2ccccc2n1CC(=O)O` [Example 223, 2-(2-methyl-3-(4-oxo-3-(2-phenoxyethyl)-3,4-dihydrophthalazin-1-yl)-1H-indol-1-yl)acetic acid] was 0.006 µM. The result for `Cc1c(Cc2ccc(=O)n(Cc3ccccc3)c2)c2ccccc2n1CC(=O)O` [Example 348, {3-[(1-benzyl-6-oxo-1,6-dihydropyridin-3-yl)methyl]-2-methyl-1H-indol-1-yl}acetic acid] reads 0.082 µM; that for `Cc1c(-c2nn(CC(C)(C)C)c(=O)c3ccccc23)c2cc(F)ccc2n1CC(=O)O` [Example 126, 2-(5-fluoro-2-methyl-3-(3-neopentyl-4-oxo-3,4-dihydrophthalazin-1-yl)-1H-indol-1-yl)acetic acid], 0.008 µM; that for `Cc1c(-c2ccc(=O)n(Cc3cccc(F)c3F)c2)c2cc(F)ccc2n1CC(=O)NS(C)(=O)=O` [Example 302, 2-(3-(1-(2,3-Difluorobenzyl)-6-oxo-1,6-dihydropyridin-3-yl)-5-fluoro-2-methyl-1H-indol-1-yl)-N-(methylsulfonyl)acetamide], 0.159 µM.

On to `Cc1c(-c2cn(CCC(C)(C)O)c(=O)c3ccccc23)c2cc(F)ccc2n1CC(=O)O` [Example 272, 2-(5-fluoro-3-(2-(3-hydroxy-3-methylbutyl)-1-oxo-1,2-dihydroisoquinolin-4-yl)-2-methyl-1H-indol-1-yl)acetic acid], for which the IC50 was found to be 0.023 µM. In turn, `Cc1c(-c2nn(Cc3ccccc3)c(=O)c3ccccc23)c2ccccc2n1Cc1nn[nH]n1` [Example 51, 4-(1-((2H-Tetrazol-5-yl)methyl)-2-methyl-1H-indol-3-yl)-2-benzyl-phthalazin-1(2H)-one] registered an IC50 of over 2 µM. Consider `Cc1c(-c2nn(Cc3ccc(Cl)cc3Cl)c(=O)c3ccccc23)c2cc(Cl)ccc2n1CC(=O)O` [Example 331, {5-chloro-3-[3-(2,4-dichlorobenzyl)-4-oxo-3,4-dihydrophthalazin-1-yl]-2-methyl-1H-indol-1-yl}acetic acid], for which the IC50 worked out at 0.003 µM. Turning to `Cc1cc(Cn2nc(-c3c(C)n(CC(=O)O)c4ccc(Cl)cc34)c3ccccc3c2=O)c2ccccc2n1` [Example 104, 2-(5-chloro-2-methyl-3-(3-((2-methylquinolin-4-yl)methyl)-4-oxo-3,4-dihydro-phthalazin-1-yl)-1H-indol-1-yl)acetic acid], the IC50 is 0.01 µM.

`Cc1c(-c2ccc(=O)n(Cc3cccc(F)c3F)c2)c2cc(F)ccc2n1Cc1nn[nH]n1` [Example 311, 5-(1-((2H-tetrazol-5-yl)methyl)-5-fluoro-2-methyl-1H-indol-3-yl)-1-(2,3-difluoro-benzyl)pyridin-2(1H)-one] yielded an IC50 of over 1 µM. As to `Cc1c(Cc2ccc(=O)n(Cc3c(F)cccc3F)c2)c2ccccc2n1CC(=O)O` [Example 37, 2-(3-((1-(2,6-Difluorobenzyl)-6-oxo-1,6-dihydropyridin-3-yl)methyl)-2-methyl-1H-indol-1-yl)acetic acid], the IC50 is 0.035 µM. `Cc1c(Cc2ccc(=O)n(Cc3cccc(F)c3)c2)c2ccccc2n1CC(=O)O` [Example 34, 2-(3-((1-(3-Fluorobenzyl)-6-oxo-1,6-dihydropyridin-3-yl)methyl)-2-methyl-1H-indol-1-yl)acetic acid] returned an IC50 of 0.054 µM. On to `Cc1c(-c2nn(Cc3nc4cc(C(F)(F)F)ccc4s3)c(=O)c3ccccc23)c2cc(F)ccc2n1CC(=O)O` [Example 115, 2-(5-fluoro-2-methyl-3-(4-oxo-3-((5-(trifluoromethyl)benzo[d]thiazol-2-yl)-methyl)-3,4-dihydrophthalazin-1-yl)-1H-indol-1-yl)acetic acid], for which the IC50 stood at 0.064 µM.
